Measured values: US10100282B2, “Differentiation of pluripotent cells” (FUJIFILM Cellular Dynamics, Inc., priority 2009, dated 2018)

B1: FLT-3: Flt3 ligand, the endogenous ligand for FLT3 (protein, UniProt P49771 27-235, looked up)
Fms-related tyrosine kinase 3 …: TQDCSFQHSPISSDFAVKIRELSDYLLQDYPVTVASNLQDEELCGGLWRLVLAQRWMERLKTVAGSKMQGLLERVNTEIHFVTKCAFQPPPSCLRFVQTNISRLLQETSEQLVALKPWITRQNFSRCLELQCQPDSSTLPPPWSPRPLEATAPTAPQPPLLLLLLLPVGLLLLAAAWCLHWQRTRRRTPRPGEQVPPVPSPQDLLLVEH
B2: GCSF: granulocyte colony-stimulating factor (protein, UniProt P09919 31-207, looked up)
Granulocyte …: TPLGPASSLPQSFLLKCLEQVRKIQGDGAALQEKLVSECATYKLCHPEELVLLGHSLGIPWAPLSSCPSQALQLAGCLSQLHSGLFLYQGLLQALEGISPELGPTLDTLQLDVADFATTIWQQMEELGMAPALQPTQGAMPAFASAFQRRAGGVLVASHLQSFLEVSYRVLRHLAQP

Key:
hESCs = assay: Cytokine matrix: serum-free EB hematopoietic differentiation, surface markers by flow cytometry; type: cell-based, human; conditions: for role during EB differentiation: serum free hematopoietic differentiation, days 8, 12, 17
Experimental: Cells were collected from each well/condition and washed once with media. The cell pellet was digested using TrypLE™ or 0.5% trypsin for 5-10 minutes in a 37° C. incubator followed by washes with media and passage through a 70-μm cell strainer. […] Non-viable cells were excluded with 7-aminoactinomycin D (7-AAD, BD Biosciences). Live cell analysis was performed on a FACSCalibur™ or Accuri flow cytometer and Cell Quest software. hESCs adapted to feeder free growth on matrigel maintained using mTESR were preconditioned for three days in the presence of X-vivo-15 containing 0.1 ng/ml TGF-β and 20 ng/ml FGF-2. Cells were harvested using TrypLE for 6 minutes at 37 C. TrypLE™ was neutralized using EB basal media containing 1 μM ROCK inhibitor (H-1152), Soybean trypsin inhibitor (0.25 mg/ml). The cells were washed once in EB basal media containing 1 μM ROCK inhibitor and soybean trypsin inhibitor (0.25 mg/ml). The cells were plated in low attachment plates in EB basal media containing 1 μM ROCK inhibitor and soybean trypsin inhibitor (0.25 mg/ml). The media was changed the next day to EB basal media containing different cytokine formulations. […] The cytokine combinations used are listed below in Table 3. The EB cultures were half fed with fresh differentiation media every two days. The EB cultures were harvested on day 8, 12 and 17 of differentiation. The EB cultures were harvested by spinning down all the cells and digesting the EBs with TrypLE™ or 0.5% trypsin. The phenotype of the progenitor cell types was analyzed by flow cytometry and the cells were plated in methylcellulose media for CFU assays. “FLT3” refers to the Flt3 ligand below.

pluripotent cells = assay: Hematopoietic differentiation in defined cell culture media with single growth factors; type: cell-based; conditions: factor alone in a cell culture media
hESCs and iPSCs = assay: EB formation from single cell suspensions using ROCK inhibitors/PVA; type: cell-based, human; conditions: 18-24 hrs
Experimental: hESCs and iPSCs adapted to feeder free growth on matrigel maintained using mTESR were preconditioned for three days in the presence of mTesR-GF containing 0.1 ng/ml TGF-β and 20 ng/ml FGF-2. To initiate differentiation from single cells the, the cultures were treated with TrypLE™ (Invitrogen) for 6 minutes and the cells suspension was collected in (1) plain EB basal media, (2) EB basal media containing PVA, (3) EB basal media containing 0.5% PVA and 1 μM H1152 or 10 μM Y27632 ROCK inhibitor, or (4) EB basal media containing only 1 uM H1152 ROCK inhibitor. The cells were collected and washed once and plated in the respective media formulations on a low attachment plate at 37 C. The EB formation status was checked at 18-24 hrs later under a phase contrast microscope.

ROCK = conditions: cited from earlier work
[1] = ROCK inhibitor present (1 μM H1152 or 10 μM Y27632), 0.5% PVA present
[2] = ROCK inhibitor present, PVA absent

Molecule	CD31 expressing cells (hESCs; DAY 8, factor ABSENT)	CD34 expressing cells (hESCs; DAY 8, factor ABSENT)	CD43 expressing cells (hESCs; DAY 8, factor ABSENT)	CD45 expressing cells (hESCs; DAY 8, factor ABSENT)	FLK-1 expressing cells (hESCs; DAY 8, factor ABSENT)	CD31 expressing cells (hESCs; DAY 8, factor PRESENT)	CD34 expressing cells (hESCs; DAY 8, factor PRESENT)	CD43 expressing cells (hESCs; DAY 8, factor PRESENT)	CD45 expressing cells (hESCs; DAY 8, factor PRESENT)	FLK-1 expressing cells (hESCs; DAY 8, factor PRESENT)	CD31 expressing cells (hESCs; DAY 12, factor ABSENT)	CD34 expressing cells (hESCs; DAY 12, factor ABSENT)	CD43 expressing cells (hESCs; DAY 12, factor ABSENT)	CD45 expressing cells (hESCs; DAY 12, factor ABSENT)	FLK-1 expressing cells (hESCs; DAY 12, factor ABSENT)	CD31 expressing cells (hESCs; DAY 12, factor PRESENT)	CD34 expressing cells (hESCs; DAY 12, factor PRESENT)	CD43 expressing cells (hESCs; DAY 12, factor PRESENT)	CD45 expressing cells (hESCs; DAY 12, factor PRESENT)	FLK-1 expressing cells (hESCs; DAY 12, factor PRESENT)	further results
VEGF	0.4%	0.7%	0.1%	0.1%	2.0%	1.1%	1.5%	1.6%	0.2%	1.8%	0.6%	1.3%	0.2%	0.2%	0.3%	3.2%	2.9%	4.0%	3.6%	0.6%	CD31 expressing cells (hESCs; DAY 17, factor ABSENT): 1.0%; CD34 expressing cells (hESCs; DAY 17, factor ABSENT): 2.0%; CD43 expressing cells (hESCs; DAY 17, factor ABSENT): 0.9%; CD45 expressing cells (hESCs; DAY 17, factor ABSENT): 0.4%; FLK-1 expressing cells (hESCs; DAY 17, factor ABSENT): 1.4%; CD31 expressing cells (hESCs; DAY 17, factor PRESENT): 11.8%; CD34 expressing cells (hESCs; DAY 17, factor PRESENT): 2.8%; CD43 expressing cells (hESCs; DAY 17, factor PRESENT): 12.6%; CD45 expressing cells (hESCs; DAY 17, factor PRESENT): 12.7%; FLK-1 expressing cells (hESCs; DAY 17, factor PRESENT): 2.3%; role during EB differentiation (hESCs): significant role at all time points; promotion of hematopoietic differentiation (pluripotent cells): did not promote hematopoietic differentiation
BMP4: Bone morphogenetic protein-4	0.2%	0.5%	0.1%	0.2%	1.4%	1.3%	1.7%	1.6%	0.2%	2.4%	0.6%	1.3%	0.3%	0.1%	0.2%	3.2%	2.9%	4.0%	3.7%	0.7%	CD31 expressing cells (hESCs; DAY 17, factor ABSENT): 1.0%; CD34 expressing cells (hESCs; DAY 17, factor ABSENT): 2.0%; CD43 expressing cells (hESCs; DAY 17, factor ABSENT): 0.7%; CD45 expressing cells (hESCs; DAY 17, factor ABSENT): 0.3%; FLK-1 expressing cells (hESCs; DAY 17, factor ABSENT): 0.8%; CD31 expressing cells (hESCs; DAY 17, factor PRESENT): 11.9%; CD34 expressing cells (hESCs; DAY 17, factor PRESENT): 2.9%; CD43 expressing cells (hESCs; DAY 17, factor PRESENT): 12.8%; CD45 expressing cells (hESCs; DAY 17, factor PRESENT): 12.8%; FLK-1 expressing cells (hESCs; DAY 17, factor PRESENT): 2.7%; role during EB differentiation (hESCs): significant role at all time points; promotion of hematopoietic differentiation (pluripotent cells): did not promote hematopoietic differentiation
C[C@@H](N)[C@H]1CC[C@H](C(=O)Nc2ccncc2)CC1 [Y-27632, (R)-(+)-trans-4-(1-Aminoethyl)-N-(4-Pyridyl)cyclohexanecarboxamide]	–	–	–	–	–	–	–	–	–	–	–	–	–	–	–	–	–	–	–	–	EB status (hESCs and iPSCs; [1]): Formed; EB status (hESCs and iPSCs; [2]): Formed
Cc1cncc2cccc(S(=O)(=O)N3CCCNCC3C)c12 (stereo in doubt) [H-1152, (S)-(+)-2-Methyl-1-[(4-methyl-5-isoquinolinyl)sulfonyl]homopiperazine]	–	–	–	–	–	–	–	–	–	–	–	–	–	–	–	–	–	–	–	–	potency relative to HA-100 (ROCK): approximately ten-fold; EB status (hESCs and iPSCs; [1]): Formed; EB status (hESCs and iPSCs; [2]): Formed
B1	0.5%	0.9%	0.3%	0.2%	1.6%	1.0%	1.4%	1.4%	0.2%	2.2%	1.5%	1.7%	1.4%	1.2%	0.5%	2.4%	2.6%	3.0%	2.7%	0.5%	CD31 expressing cells (hESCs; DAY 17, factor ABSENT): 1.4%; CD34 expressing cells (hESCs; DAY 17, factor ABSENT): 2.2%; CD43 expressing cells (hESCs; DAY 17, factor ABSENT): 1.1%; CD45 expressing cells (hESCs; DAY 17, factor ABSENT): 0.9%; FLK-1 expressing cells (hESCs; DAY 17, factor ABSENT): 1.3%; CD31 expressing cells (hESCs; DAY 17, factor PRESENT): 11.5%; CD34 expressing cells (hESCs; DAY 17, factor PRESENT): 2.6%; CD43 expressing cells (hESCs; DAY 17, factor PRESENT): 12.4%; CD45 expressing cells (hESCs; DAY 17, factor PRESENT): 12.3%; FLK-1 expressing cells (hESCs; DAY 17, factor PRESENT): 2.4%
B2	0.8%	1.2%	1.0%	0.2%	2.2%	0.7%	1.1%	0.8%	0.2%	1.7%	2.2%	2.4%	2.3%	2.6%	0.7%	1.8%	2.0%	2.3%	1.5%	0.4%	CD31 expressing cells (hESCs; DAY 17, factor ABSENT): 4.8%; CD34 expressing cells (hESCs; DAY 17, factor ABSENT): 2.7%; CD43 expressing cells (hESCs; DAY 17, factor ABSENT): 4.9%; CD45 expressing cells (hESCs; DAY 17, factor ABSENT): 4.9%; FLK-1 expressing cells (hESCs; DAY 17, factor ABSENT): 1.6%; CD31 expressing cells (hESCs; DAY 17, factor PRESENT): 8.6%; CD34 expressing cells (hESCs; DAY 17, factor PRESENT): 2.2%; CD43 expressing cells (hESCs; DAY 17, factor PRESENT): 9.1%; CD45 expressing cells (hESCs; DAY 17, factor PRESENT): 8.8%; FLK-1 expressing cells (hESCs; DAY 17, factor PRESENT): 2.1%
